Consider three compounds from PMC10291556 (Journal of Medicinal Chemistry, 2023).

The IC50 is the concentration needed to halve the response being measured.

In one series the test system is A2780cisR. Description: MTT antiproliferative assay, 72 h. The format is cell-based, human. The following applies: MTT, 72 h incubation, mean ± SD; read-out: IC50 A2780cisR. As for the experimental part:
(§1) Cells were treated with the tested compounds in a final volume of 200 μL/well. […] Calbiochem, Darmstadt, Germany) was added, and the cells were incubated for an additional 2–4 h. The medium was removed, and the insoluble formazan product was dissolved in 100 μL/well DMSO. The absorbance was read at 570 nm (vs 620 nm) using an Absorbance Reader (SUNRISE TECAN SCHOELLER). The read values were converted to the percentage of control. […] All experiments were made in triplicate.
(In general: Formazan colour is commonly taken as a measure of viable cells.)

The test system of a further series is A2780. Description: MTT antiproliferative assay, 72 h. The following applies: MTT, 72 h incubation, mean ± SD; read-out: IC50 A2780. The format is cell-based, human. As for the experimental part: as §1
The next series relates to HCT-116. Kind of series: MTT antiproliferative assay, 72 h. The class given is cell-based, human. The settings on record: MTT, 72 h incubation, mean ± SD; read-out: IC50 HCT-116. The procedure:
as §1

For another series, the system named is HeLa. Description: MTT antiproliferative assay, 72 h. The class given is cell-based, human. The following applies: MTT, 72 h incubation, mean ± SD; read-out: IC50 HeLa. The procedure:
as §1

The subject of another series is MCF-7. Kind of series: MTT antiproliferative assay, 72 h. The class given is cell-based, human. The following applies: MTT, 72 h incubation, mean ± SD; read-out: IC50 MCF-7. The procedure:
as §1

For a further series, the system named is MDA-MB-231. Kind of series: MTT antiproliferative assay, 72 h. The class given is cell-based, human. The settings on record: MTT, 72 h incubation, mean ± SD; read-out: IC50 MDA-MB-231. As for the experimental part: as §1
For the next series, the system named is MRC-5. Description: MTT assay in non-cancerous fibroblasts, 72 h. The settings on record: non-cancerous human fibroblasts, 72 h incubation, mean ± SD. The class given is cell-based. As for the experimental part:
Cells were treated with the tested compounds in a final volume of 200 μL/well. […] Calbiochem, Darmstadt, Germany) was added, and the cells were incubated for an additional 2–4 h. The medium was removed, and the insoluble formazan product was dissolved in 100 μL/well DMSO. […] The read values were converted to the percentage of control. […] All experiments were made in triplicate.

The subject of series [1] is HeLa cells. Description: Cellular accumulation of platinum (ICP-MS). The following applies: for cellular uptake 0.1 μM/24 h: 0.1 μM complex; for cellular uptake 1 μM/6 h: 1 μM complex; for cellular uptake 10 μM/6 h: 10 μM complex. The format is cell-based, human. The procedure:
Briefly, 3 × 10^6 cells were seeded in 100 mm culture dishes and grown overnight. The cells were exposed to the tested complexes at indicated concentrations for indicated periods. […] The pellets were digested using the microwave acid (HCl) digestion system (CEM Mars). The platinum quantity taken up by the cells was determined by inductively coupled plasma mass spectrometry (ICP–MS). All experiments were performed in triplicate.

Series [2] relates to DNA isolated from HeLa cells. Description: Pt associated with DNA isolated from treated HeLa cells. The settings on record: 1 µM compound, 6 h, mean ± SD. The format is cell-based, human. An excerpt: page 16: Table S1: […] concentration of tested compounds for 6 ha. […] Figure S19: A. Representative histograms obtained by flow cytometric analysis of calreticulin exposure in HeLa cells treated with indicated compounds. B. An example of gating DAPI negative population. Only DAPI-negative cells were taken for the evaluation.

Series [3] is described as follows: Partition coefficient, shake-flask method. The class given is physicochemical. The following applies: octanol/water. The procedure: The “shake flask” method was used to measure the partition coefficients (P) of platinum compounds. The compounds were dissolved in octanol-saturated water (OSW) containing 200 mM NaCl. […] After careful separation of the layers with a fine-tip pipet, the Pt content in individual phases was determined by flameless atomic absorption spectrometry. The partition coefficients were calculated as the concentration ratio of the compound in the octanol layer to that in the aqueous layer, log P = log([Pt]WSO/[Pt]OSW).

For series [4], the system named is HeLa cells. Kind of series: Mitochondrial membrane potential (TMRE, flow cytometry). The settings on record: 10× IC50, 1 h, vs untreated control. The format is cell-based, human. As for the experimental part: Figure 4 Changes in the mitochondrial membrane potential Δψm in HeLa cells. The cells were treated with Pt compounds at the concentrations corresponding to 10× IC50 for 1 h and subsequently stained with TMRE. The fluorescence was measured by flow cytometry. Data represents mean ± SD from three independent experiments, *p < 0.01.
HeLa cells were seeded (6-well plates, 3 × 10^5 cells/well), grown overnight, and then treated with the tested compounds for 1 h. The medium was removed, and a fresh medium containing TMRE (Thermo Fisher Scientific) at a final concentration of […] in 500 μL was added. The cells were incubated for 30 min at 37 °C and then harvested using trypsin. TMRE fluorescence was measured with a fluorescence-activated cell sorting (FACS) Verse flow cytometer (Becton Dickinson), and the data were analyzed using the ModFit LT 4.1 (Verity Software House) software. The experiment was performed in triplicate.

In another series the test system is COX-2 in HeLa cells. Kind of series: Western blotting of COX-2. The format is cell-based, human. The settings on record: 24 h, 1×, 3× IC50, Western blot. As for the experimental part: (B) Quantitative evaluation of Western blotting data; the relative expression of COX-2 normalized to GAPDH. Data represents the mean ± SD of two experiments. The stars indicate the statistical significance of difference vs control determined with the Student t-test (*p < 0.05, **p < 0.01, ***p < 0.001).
HeLa cells were seeded in 60 mm dishes at a density of 3 × 10^5 cells/dish and cultured for 20 h. The cells were then treated with the tested compounds at concentrations indicated in the text. After 24 h of treatment, the cells were scraped, washed, and pelleted. […] 4–20% SDS-PAGE (sodium dodecyl sulfate-polyacrylamide gel electrophoresis) (Mini-PROTEAN TGX Precast Gel) was used to resolve the proteins. After transferring to the polyvinylidene fluoride membrane, the proteins were detected using appropriate antibodies: anti-GAPDH antibody (mouse, Sigma-Aldrich), Anti-COX-2 (rabbit, Abcam), Anti-α-, β-, or γ-tubulin (all rabbit, Abcam), Anti-β-actin (mouse, Abcam), Goat Anti-Rabbit IgG(HRP) (Abcam; HRP = horseradish peroxidase), and Goat Anti-Mouse IgG(HRP) (ThermoFisher Scientific). SignalFire ECL Reagent (A + B) was used as a substrate for HRP, and the luminescence was recorded with Amersham Imager 680. The densities in the images were assessed with the Aida image analysis software.
On the technique in general: In western blotting, separated proteins are transferred to a membrane and probed.

Series [5] concerns HeLa cells. Description: Wound healing assay. The class given is cell-based, human. The following applies: 24 h, multiples of IC50,72h. As for the experimental part: Figure 7 (A–E) Wound healing assay. The monolayer of HeLa cells was scratched with a 10 μL tip, and a starving medium containing the tested complexes was added. The shots were taken at times 0 and 24 h. (A) Control, non-treated cells; (B) cells treated with complex 3; (C) cells treated with complex 4. […] (E) Evaluation of wound healing assay. Bars represent gap size vs. Control (100%), following a 24 h incubation with the investigated compounds. Light gray bars: complex 3; dark gray bars: complex 4; black bar: complex 2. (F) Re-adhesion assay. […] Following trypsinization, the cells were resuspended in Dulbecco’s modified Eagle medium (DMEM), counted, left to reconstitute adhesive membrane proteins for 30 min, and re-seeded at the density of 3× 10^4 cells/100 μL/well. After 30 min of incubation at 37 °C, the re-adhesion activity was determined as described in the Experimental Section. Data represents mean ± SD, n = 8; *p < 0.05, **p < 0.01, ***p < 0.001.
HeLa cells were grown close to confluence in 6-well plates in a complete medium, and then the medium was replaced with a serum-free medium [supplemented with 0.1% bovine serum albumin (BSA)], and the cells were incubated for an additional 24 h. The HeLa monolayers were scratched with a 10 μL pipet tip, and the cells were washed twice with PBS to remove peeled cells and treated with tested compounds at indicated concentrations. The scratched areas were shot immediately after the complex addition and then after 24 h with a Canon EOS 1200D camera attached to an Olympus CKX41 inverted microscope with a 10×/0.25 phase contrast objective. Digital images were taken by the QuickPHOTO MICRO 3.1 program (PROMICRA, Prague, Czech Republic) and processed with the TScratch analysis software (ETH Zürich, Switzerland). The cell’s ability to migrate into the open area was expressed as a percentage of control.

The test system of another series is COX in HeLa cells. Kind of series: COX activity assay (kit) in treated cells. The settings on record: 24 h, 1× IC50,72h, vs untreated control. The format is cell-based, human. As for the experimental part: The results are expressed relative to the COX activity of untreated control.
HeLa cells were seeded in 6-well plates at a density of 10^5 cells/well and incubated overnight. The cells were treated with the tested compounds at concentrations corresponding to 1× IC50. Following a 24 h treatment, the cells were lyzed with radioimmunoprecipitation assay (RIPA) buffer supplemented with proteinase inhibitors on ice for 10 min. The extracts were cleared with centrifugation (12,000g/5 min), and protein content was determined using Bradford assay. COX activity was determined with a COX Activity Assay Kit (Abcam). 6 μg of protein was used in the reaction. The experiment was set up according to the manufacturer’s instructions. The fluorescence (Ex/Em 535/587 nm) was read in a kinetic mode, and the COX inhibition was expressed as a percentage of the activity of the untreated control.

Series [6] has as its system HeLa cells. Description: ATP secretion. The following applies: 1× and 3× IC50, 24 h. The class given is cell-based, human.
Method: (A) Extracellular ATP levels in HeLa cell supernatants.
HeLa cells were seeded in 24-well plates at a density of 10^4 cells/well, grown overnight, and then treated with the tested complexes for 24 h. Aliquots of culture medium samples were withdrawn, centrifugated (500g, 3 min), and processed with ATP Bioluminescence Assay Kit CLS II, Roche. Briefly, 50 μL of cell-free medium samples were added to a 96-well flat white plate, and an equal volume of luciferase reagent was added. The luminescence was measured immediately on a plate reader (SPARK, Tecan). The blank (no ATP) was subtracted from the raw data. ATP concentrations were obtained from the standard curve and normalized to cell counts and control. The data are shown as MEAN of 4–5 independent measurements.
Series [7] relates to HeLa cells. Description: HMGB1 release (ELISA). The format is cell-based, human. The settings on record: 1×, 2×, 3× IC50, 20 h. (In an ELISA, binding on a coated surface is turned into a signal by an enzyme label.)
Method: (B) Extracellular level of HMGB1. […] The data in panels A, B, and C are shown as a mean of 4–5 measurements ± SD. Statistical significance from untreated control was determined with the Student t-test (*p ≤ 0.05, **p ≤ 0.01, and ^#p ≤ 0.001).
HeLa cells were seeded in 24-well plates at a density of 10^4 cells/well and grown overnight. The medium was removed, and a fresh medium (DMEM, 1% BSA, no FBS) containing indicated concentrations of tested complexes was added (300 μL). Following a 20 h treatment, medium samples were withdrawn, and the HMGB1 content was determined using an HMGB1 ELISA Kit (IBL international) following the instructions for use. Cell counts in corresponding wells were determined using Automated Cell Counter (Bio-Rad). HMGB1 concentrations were normalized to cell counts and to the value of untreated control. The experiment was performed twice with duplicate readings.
The test system of series [8] is HeLa cells. Description: Calreticulin exposure (flow cytometry). The format is cell-based, human. The settings on record: 3× IC50, 16–18 h, DAPI-negative cells.
Method: (C) Calreticulin exposure to the cell surface. […] The surface calreticulin exposure was determined in 4′,6-diamidino-2-phenylindole dihydrochloride (DAPI)-negative cell population. Relative fluorescence intensity was calculated as the median fluorescence of the population of treated cells/median fluorescence of untreated control cells.
Following the treatment, the cells were harvested (trypsin), washed with FACS buffer (PBS, BSA 1%, and FBS 2%), and incubated with Alexa Fluor 488 Anti-Calreticulin antibody for 40 min at 4 °C. The buffer was removed (CFG, 300 g, 3 min) and replaced with FACS buffer containing DAPI (1 μg mL^–1, 20 min), and the cells were analyzed with flow cytometry (BD FACS Verse) and FCS Express 6 (DeNovo Software, Glendale, CA). Calreticulin fluorescence histograms were analyzed in the DAPI-negative (intact membrane) cell population.

Consider `N.N.[Cl][Pt][Cl]` [cisplatin, reference compound], for which the IC50 was determined as 20 ± 2 µM with A2780cisR; 3.5 ± 0.6 µM with A2780; 8 ± 1 µM with HCT-116; 15 ± 3 µM with HeLa; 14 ± 3 µM in the series with MCF-7; 22 ± 2 µM in the series on MDA-MB-231. This compound also came in with an IC50 in the series with MRC-5 of 7.3 ± 0.9 µM. Further, in the series on HeLa cells [1], the “cellular uptake 0.1 μM/24 h” value was found to be 0.3 ± 0.1 ng Pt/10^6 cells. The “cellular uptake 1 μM/6 h” value in the series on HeLa cells [1] stood at 2.3 ± 0.3 ng Pt/10^6 cells. Besides, the “cellular uptake 10 μM/6 h” value with HeLa cells [1] came out at 10 ± 3 ng Pt/10^6 cells. Moreover, in [2], the “amount of Pt associated with DNA” value was found to be 2.8 ± 0.2 pg Pt/µg DNA.
Take `Cc1c(C)c2c3c4c1=CC=C[N]4[Pt]([Cl])([Cl])[N]3C=CC=2.N[C@H]1CCCC[C@@H]1N` [complex 2, Pt^IV56MeSSCl2]: the IC50 turned out to be 0.4 ± 0.08 µM in the series on A2780cisR; 0.39 ± 0.01 µM with A2780; 1.6 ± 0.4 µM in the series on HCT-116; 2.9 ± 0.7 µM in the series with HeLa; 5.9 ± 0.5 µM in the series on MCF-7; 1.5 ± 0.4 µM with MDA-MB-231. In the series with MRC-5, the IC50 is 2.1 ± 0.4 µM. Also, in the series with HeLa cells [1], the “cellular uptake 0.1 μM/24 h” value stood at 2.2 ± 0.2 ng Pt/10^6 cells. Besides, the “cellular uptake 1 μM/6 h” value with HeLa cells [1] is 6.2 ± 0.3 ng Pt/10^6 cells. Further, the “cellular uptake 10 μM/6 h” value with HeLa cells [1] was 47 ± 2 ng Pt/10^6 cells. In addition, in series [3], the “log P” value was “–2.1 ± 0.2”. For the same compound, the “amount of Pt associated with DNA” value in series [2] turned out to be 1.9 ± 0.1 pg Pt/µg DNA. Moreover, the “mitochondrial membrane potential Δψm (TMRE fluorescence)” value in the series with HeLa cells [4] is reported as “insignificant impact on the Δψm”. In addition, the “intracellular level of COX-2 protein” value in the series with COX-2 in HeLa cells is given as “markedly less effective”. The “migration activity (wound closing)” value in the series on HeLa cells [5] was “less efficient in inhibting artificial wound closing”.
Turning to `NCCNC(=O)Cc1ccccc1Nc1c(Cl)cccc1Cl` [enDCF, diclofenac amide], the half-maximal inhibitory concentration (IC50) in the series on HCT-116 came to 27 ± 4 µM; in the series with HeLa it was 30 ± 2 µM; in the series with MCF-7, 37 ± 4 µM; in the series with MDA-MB-231 it was 32 ± 3 µM; with MRC-5, 58 ± 6 µM. Further, the “mitochondrial membrane potential Δψm (TMRE fluorescence)” value in the series with HeLa cells [4] was “The same effect”. The “inhibition of COX activity” value in the series on COX in HeLa cells is recorded as “Inhibition of COX activity was also observed”. Moreover, in the series with HeLa cells [6], the ATP secretion result is reported as “effective as well”. Also, the HMGB1 secretion entry in the series on HeLa cells [7] is “effective as well”. The externalization of calreticulin result in the series with HeLa cells [8] was “effective as well”.
